Consider 23 molecules from patent US10364256B2 (GlaxoSmithKline Intellectual Property Development Limited, priority 2015, dated 2019).

What is called IC50 is the concentration at which inhibition is half-maximal. The term EC50 denotes the concentration that produces a half-maximal response.

Assay [1] addresses T1, full length Keap1 protein / full length NRF2 protein (Homo sapiens, UniProt Q14145).
T1 construct: full length NRF2 protein and full length Keap1 protein (Keap1 exists a dimer) are used; His
The assay can be described thus: NRF2-Keap1 TR-FRET Low Protein Assay. Type of assay: binding. The settings on record: 1.25 nM Keap1 FlagHis and 2.5 nM biotin-NRF2 added. The method, boiled down: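 Flag-tagged full-length Keap1 was preincubated with compound (3-fold series) for 2.25 h at 37 °C in Tris pH 8.0/MgCl2/NaCl/BSA/DTT/CHAPS. Biotin-Avi-NRF2 (added at 2.5 nM) was then bound for 1.25 h at 4 °C. Eu-streptavidin/anti-Flag-APC TR-FRET (665/615 nm) was read after 1 h at RT, and pIC50 came from a four-parameter fit.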
(In general: TR-FRET usually uses a lanthanide donor and a delayed reading to cut background.)

Assay [2] has as its system NQO1 specific enzyme activity in BEAS-2B cells (marker for NRF2 activation). The assay can be described thus: BEAS-2B NQO1 MTT Assay. It is filed as cell-based. The settings on record: Homo sapiens, compound incubated 48 hours, read-out: EC50 (NQO1 specific enzyme activity induction). The method, boiled down:
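NQO1 specific activity induction is derived from the rate of MTT reduction (ΔOD/min, 570 nm, 30 min kinetic read) in crude lysates of BEAS-2B cells exposed to compound for 48 h. A 3-parameter fit gives EC50, reported as pEC50; part of each lysate goes to Cell Titer Glo.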

Where two headings read alike, the source gives them in different places.

T1 sequence (Q14145 whole entry): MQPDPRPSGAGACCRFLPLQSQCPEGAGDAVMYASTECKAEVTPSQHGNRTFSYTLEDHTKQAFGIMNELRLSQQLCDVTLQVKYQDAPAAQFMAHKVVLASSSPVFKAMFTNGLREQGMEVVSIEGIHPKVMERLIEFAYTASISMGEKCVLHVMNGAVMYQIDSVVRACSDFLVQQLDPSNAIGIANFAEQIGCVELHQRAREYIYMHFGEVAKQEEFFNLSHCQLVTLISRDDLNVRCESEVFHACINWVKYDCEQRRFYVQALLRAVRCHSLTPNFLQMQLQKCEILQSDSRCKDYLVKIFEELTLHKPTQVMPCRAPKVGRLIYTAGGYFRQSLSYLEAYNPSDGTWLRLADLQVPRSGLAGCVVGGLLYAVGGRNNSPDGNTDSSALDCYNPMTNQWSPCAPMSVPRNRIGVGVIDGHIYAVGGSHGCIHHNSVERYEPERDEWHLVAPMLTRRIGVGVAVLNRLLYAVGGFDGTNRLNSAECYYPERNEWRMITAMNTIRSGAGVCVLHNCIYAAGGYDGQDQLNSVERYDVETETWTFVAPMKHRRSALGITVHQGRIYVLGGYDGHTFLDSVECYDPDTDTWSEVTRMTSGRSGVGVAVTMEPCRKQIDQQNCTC

For `Cn1cc([C@H]2C[C@@H]2c2c(C(=O)O)cnn2-c2cccc(-c3cccc(OC[C@H]4CC[C@H](Cl)CC4)c3)c2)nn1` (racemic) [Example 185, 1-(3′-((4-Chlorocyclohexyl)methoxy)-[1,1′-biphenyl]-3-yl)-5-((1,2-trans)-2-(1-methyl-1H-1,2,3-triazol-4-yl)cyclopropyl)-1H-pyrazole-4-carboxylic Acid], the concentration for half-maximal inhibition (IC50) in assay [1] was 10 to 100 nM. For the same molecule, in assay [2], the 50% effective concentration (EC50) is 10 to 100 nM.

In assay [1], `Cn1cc(C2CC2c2c(C(=O)O)cnn2-c2cccc(-c3cccc(OCc4ccccc4F)c3)c2)nn1` (stereo not shown) [Example 222, 1-(3′-((2-Fluorobenzyl)oxy)-[1,1′-biphenyl]-3-yl)-5-(2-(1-methyl-1H-1,2,3-triazol-4-yl)cyclopropyl)-1H-pyrazole-4-carboxylic acid] came in with an IC50 of 10 to 100 nM. Moreover, in assay [2], the EC50 was 100 to 1000 nM.

Regarding `Cn1cc([C@H]2C[C@@H]2c2c(C(=O)O)cnn2-c2cccc(-c3cccc(-n4ncc5c4C(C)(C)CC5)c3)c2)nn1` (stereo in doubt) [Example 208, 1-(3′-(6,6-Dimethyl-5,6-dihydrocyclopenta[c]pyrazol-1(4H)-yl)-[1,1′-biphenyl]-3-yl)-5-((1S,2S)-2-(1-methyl-1H-1,2,3-triazol-4-yl)cyclopropyl)-1H-pyrazole-4-carboxylic Acid], the IC50 in assay [1] was less than 10 nM. Also, the EC50 in assay [2] is 10 to 100 nM.

Regarding `CCC[C@@H]1CCCCN1C(=O)c1cccc(-c2cccc(-n3ncc(C(=O)O)c3[C@@H]3C[C@H]3c3cn(C)nn3)c2)c1` [Example 51h, 5-[(1R,2R)-2-(1-methyl-1H-1,2,3-triazol-4-yl)cyclopropyl]-1-(3-{3-[(2R)-2-propylpiperidine-1-carbonyl]phenyl}phenyl)-1H-pyrazole-4-carboxylic Acid], the IC50 in assay [1] was less than 10 nM. In addition, in assay [2] (BEAS-2B, 48 h), the concentration giving a half-maximal response (EC50) fell in the range of 10 to 100 nM.

Take `CCCCC1CCc2cnn(-c3cccc(-c4cccc(-n5ncc(C(=O)O)c5C5CC5)c4)c3)c21` (stereo not shown) [Example 206, 1-(3′-(6-Butyl-5,6-dihydrocyclopenta[c]pyrazol-1(4H)-yl)-[1,1′-biphenyl]-3-yl)-5-cyclopropyl-1H-pyrazole-4-carboxylic Acid]: in assay [1], the IC50 is 100 to 1000 nM. Further, the EC50 in assay [2] is 100 to 1000 nM.

Consider `CCC[C@@H]1CCCCN1C(=O)c1cccc(-c2cccc(-n3ncc(C(=O)O)c3[C@H]3C[C@@H]3c3cn(C)nn3)c2)c1` [Example 51g, 5-[(1S,2S)-2-(1-methyl-1H-1,2,3-triazol-4-yl)cyclopropyl]-1-(3-{3-[(2R)-2-propylpiperidine-1-carbonyl]phenyl}phenyl)-1H-pyrazole-4-carboxylic Acid], for which the IC50 in assay [1] lay in the range of 100 to 1000 nM. In assay [2] (BEAS-2B, 48 h), the EC50 is 1000 to 10000 nM.

`CCC[C@@H]1CCCCN1C(=O)c1cccc(-c2cccc(-n3ncc(C(=O)O)c3C3CC3c3cn(C)nn3)c2)c1F` (stereo partly drawn) [Example 57, 1-(2′-Fluoro-3′-((R)-2-propylpiperidine-1-carbonyl)-[1,1′-biphenyl]-3-yl)-5-(2-(1-methyl-1H-1,2,3-triazol-4-yl)cyclopropyl)-1H-pyrazole-4-carboxylic Acid] gave an IC50 in assay [1] of less than 10 nM. Further, the EC50 in assay [2] (BEAS-2B, 48 h) fell in the range of 10 to 100 nM.

In the case of `O=C(O)c1cnn(-c2cccc(-c3cccc(-n4ncc5c4CCCC5)c3)c2)c1C1CC1` [Example 62, 5-cyclopropyl-1-(3′-(4,5,6,7-tetrahydro-1H-indazol-1-yl)-[1,1′-biphenyl]-3-yl)-1H-pyrazole-4-carboxylic Acid], the IC50 in assay [1] lay within 100 to 1000 nM. For the same molecule, the concentration giving a half-maximal response (EC50) in assay [2] (BEAS-2B, 48 h) fell in the range of 100 to 1000 nM.

`Cn1cc(C2CC2c2c(C(=O)O)cnn2-c2cccc(-c3cccc(OC4CCOCC4)c3F)c2)nn1` (stereo not shown) [Example 234, 1-(2′-Fluoro-3′-((tetrahydro-2H-pyran-4-yl)oxy)-[1,1′-biphenyl]-3-yl)-5-(2-(1-methyl-1H-1,2,3-triazol-4-yl)cyclopropyl)-1H-pyrazole-4-carboxylic Acid] displayed an IC50 in assay [1] of 10 to 100 nM. The concentration for a half-maximal effect (EC50) in assay [2] was in the range of 1000 to 10000 nM.

In assay [1], `CC(CC1CCCCC1)Oc1cccc(-c2cccc(-n3ncc(C(=O)O)c3C3CC3c3cn(C)nn3)c2)c1` (stereo not shown) [Example 218, 1-(3′-((1-Cyclohexylpropan-2-yl)oxy)-[1,1′-biphenyl]-3-yl)-5-(2-(1-methyl-1H-1,2,3-triazol-4-yl)cyclopropyl)-1H-pyrazole-4-carboxylic Acid] came in with an IC50 of 10 to 100 nM. In assay [2], the 50% effective concentration (EC50) was 10 to 100 nM.

In assay [1], `CCC[C@@H]1CCCCN1C(=O)c1cncc(-c2cccc(-n3ncc(C(=O)O)c3C3CC3c3cn(C)nn3)c2)c1` (stereo partly drawn) [Example 197, 5-(2-(1-Methyl-1H-1,2,3-triazol-4-yl)cyclopropyl)-1-(3-(5-((R)-2-propylpiperidine-1-carbonyl)pyridin-3-yl)phenyl)-1H-pyrazole-4-carboxylic acid] displayed a half-maximal inhibitory concentration (IC50) of less than 10 nM. In assay [2] (BEAS-2B, 48 h), the half-maximal effective concentration (EC50) fell in the range of 1000 to 10000 nM.

Regarding `CC[C@@H]1CN(Cc2cccc(-c3cccc(-n4ncc(C(=O)O)c4C4CC4c4cn(C)nn4)c3)c2)Cc2ccccc2O1` (stereo partly drawn) [Example 129, 1-(3′-(((R)-2-ethyl-2,3-dihydrobenzo[f][1,4]oxazepin-4(5H)-yl)methyl)-[1,1′-biphenyl]-3-yl)-5-(2-(1-methyl-1H-1,2,3-triazol-4-yl)cyclopropyl)-1H-pyrazole-4-carboxylic Acid], the half-inhibitory concentration (IC50) in assay [1] is less than 10 nM. In addition, in assay [2], the half-maximal effective concentration (EC50) was in the range of 100 to 1000 nM.

Molecule `CCC[C@@H]1CCCCN1C(=O)c1cccc(-c2cccc(-n3ncc(C(=O)O)c3C3CC3(F)F)c2)c1` (stereo partly drawn) [Example 67, 5-(2,2-Difluorocyclopropyl)-1-(3′-((R)-2-propylpiperidine-1-carbonyl)-[1,1′-biphenyl]-3-yl)-1H-pyrazole-4-carboxylic Acid] gave an IC50 in assay [1] of 10 to 100 nM. In addition, in assay [2] (BEAS-2B, 48 h), the EC50 lay in the range of 100 to 1000 nM.

In the case of `CC(Oc1cccc(-c2cccc(-n3ncc(C(=O)O)c3[C@H]3C[C@@H]3c3cn(C)nn3)c2)c1)C1CCCCC1` (stereo partly drawn) [Example 165, 1-(3′-(1-Cyclohexylethoxy)-[1,1′-biphenyl]-3-yl)-5-((1S,2S)-2-(1-methyl-1H-1,2,3-triazol-4-yl)cyclopropyl)-1H-pyrazole-4-carboxylic acid], the IC50 in assay [1] is less than 10 nM. The half-maximal effective concentration (EC50) in assay [2] (BEAS-2B, 48 h) was 1 to 10 nM.

`Cn1cc(C2CC2c2c(C(=O)O)cnn2-c2cccc(-c3cccc(OCc4cccc(F)c4)c3)c2)nn1` (stereo not shown) [Example 224, 1-(3′-((3-Fluorobenzyl)oxy)-[1,1′-biphenyl]-3-yl)-5-(2-(1-methyl-1H-1,2,3-triazol-4-yl)cyclopropyl)-1H-pyrazole-4-carboxylic acid] gave a half-maximal inhibitory concentration (IC50) in assay [1] of 100 to 1000 nM. Besides, in assay [2], the EC50 was in the range of 100 to 1000 nM.

With `CC(Oc1cccc(-c2cccc(-n3ncc(C(=O)O)c3C3CC3c3cn(C)nn3)c2)c1)c1ccccc1` (stereo not shown) [Example 235, 5-(2-(1-Methyl-1H-1,2,3-triazol-4-yl)cyclopropyl)-1-(3′-(1-phenylethoxy)-[1,1′-biphenyl]-3-yl)-1H-pyrazole-4-carboxylic Acid], the concentration for half-maximal inhibition (IC50) in assay [1] lay within 10 to 100 nM. Further, the EC50 in assay [2] fell in the range of 100 to 1000 nM.

In assay [1], `CCC[C@@H]1CCCCN1C(=O)c1cccc(-c2cccc(-n3ncc(C(=O)O)c3C3CC3c3cnn(C)c3)c2)c1F` (stereo partly drawn) [Example 214, 1-(2′-Fluoro-3′-((R)-2-propylpiperidine-1-carbonyl)-[1,1′-biphenyl]-3-yl)-5-(2-(1-methyl-1H-pyrazol-4-yl)cyclopropyl)-1H-pyrazole-4-carboxylic Acid] gave a concentration for half-maximal inhibition (IC50) of less than 10 nM. Further, in assay [2] (BEAS-2B, 48 h), the 50% effective concentration (EC50) lay in the range of 100 to 1000 nM.

The molecule `Cn1cc(C2CC2c2c(C(=O)O)cnn2-c2cccc(-c3cccc(OC4CCCCC4)c3)c2)nn1` (stereo not shown) [Example 229] had an IC50 in assay [1] of 10 to 100 nM. In assay [2], the EC50 fell in the range of 10 to 100 nM.

Molecule `CC(Oc1cccc(-c2cccc(-n3ncc(C(=O)O)c3[C@@H]3C[C@H]3c3cn(C)nn3)c2)c1)C1CCCCC1` (stereo partly drawn) [Example 163, 1-(3′-(1-Cyclohexylethoxy)-[1,1′-biphenyl]-3-yl)-5-((1R,2R)-2-(1-methyl-1H-1,2,3-triazol-4-yl)cyclopropyl)-1H-pyrazole-4-carboxylic acid] displayed a half-maximal inhibitory concentration (IC50) in assay [1] of 100 to 1000 nM. For the same molecule, the EC50 in assay [2] (BEAS-2B, 48 h) was 10 to 100 nM.

`CC(CC1CCCCC1)Oc1cccc(-c2cccc(-n3ncc(C(=O)O)c3C3CC3)c2)c1` (stereo not shown) [Example 161, 1-(3′-((1-Cyclohexylpropan-2-yl)oxy)-[1,1′-biphenyl]-3-yl)-5-cyclopropyl-1H-pyrazole-4-carboxylic Acid] showed an IC50 in assay [1] of 1000 to 10000 nM. The concentration giving a half-maximal response (EC50) in assay [2] was 100 to 1000 nM.

Regarding `CCn1cc([C@H]2C[C@@H]2c2c(C(=O)O)cnn2-c2cccc(-c3cccc(OC(C)C4CCCCC4)c3)c2)nn1` (mixture of isomers) [Example 192, 1-(3′-(1-cyclohexylethoxy)-[1,1′-biphenyl]-3-yl)-5-((1,2-trans)-2-(1-ethyl-1H-1,2,3-triazol-4-yl)cyclopropyl)-1H-pyrazole-4-carboxylic acid], the IC50 in assay [1] is 10 to 100 nM. For the same molecule, the concentration for a half-maximal effect (EC50) in assay [2] is 1 to 10 nM.

In the case of `CCC[C@@H]1CCCCN1C(=O)c1cccc(-c2cccc(-n3ncc(C(=O)O)c3[C@H]3C[C@@H]3c3cn(CC)nn3)c2)c1` (racemic) [Example 201, 5-((1,2-trans)-2-(1-Ethyl-1H-1,2,3-triazol-4-yl)cyclopropyl)-1-(3′-((R)-2-propylpiperidine-1-carbonyl)-[1,1′-biphenyl]-3-yl)-1H-pyrazole-4-carboxylic acid], the 50% inhibitory concentration (IC50) in assay [1] was less than 10 nM. Moreover, the concentration for a half-maximal effect (EC50) in assay [2] (BEAS-2B, 48 h) lay within 100 to 1000 nM.

For `Cn1cc(C2CC2c2c(C(=O)O)cnn2-c2cccc(-c3cccc(OCC4CCCCC4)c3)c2)nn1` (stereo not shown) [Example 164, 1-(3′-(Cyclohexylmethoxy)-[1,1′-biphenyl]-3-yl)-5-(2-(1-methyl-1H-1,2,3-triazol-4-yl)cyclopropyl)-1H-pyrazole-4-carboxylic acid], the IC50 in assay [1] was 10 to 100 nM. In addition, the EC50 in assay [2] lay in the range of 10 to 100 nM.
